Patent US20230067194A1, “METHOD FOR TREATMENT OF ACQUIRED COGNITIVE DEFICITS” (CORNELL UNIVERSITY, priority 2020, published 2023)
Entries after “also recorded” stand apart in the source; their conditions may differ.

How the values were obtained:
SBI mice = experiment: Sleep-wake cycle LFP power spectra in secondary-blast injury (SBI) mice with sodium oxybate injection; format: in vivo
Protocol: FIGS. 7A-7B. Effects of sodium oxybate injection on the sleep-wake cycle of SBI mice. The top panels display the delta power during the dark (blue; daytime) and light (yellow; sleep time) within 24 hours in (A) Non-REM, or (B) Wake mice. The pink vertical lines represent the time in which animals received an intraperitoneal injection of sodium oxybate (SO; 400 mg/Kg) diluted in saline. The bottom panels show the LFP power spectra obtained from sleep periods and wake periods with and without sodium oxybate. In (A), the dark blue line represents NREM sleep without sodium oxybate administration and the red line represents NREM sleep with sodium oxybate administration. In (B), the dark blue line represents Wake without sodium oxybate administration during prior sleep and the red line represents Wake with sodium oxybate administration during prior sleep. Application of sodium oxybate during the night results in elevation of delta (1-5 Hz) LFP power and increases during the subsequent wakeful period in beta (15-30 Hz) and gamma (>30 Hz) LFP. Importantly, consistent with our theory because of the short half-life of sodium oxybate these changes in wakeful LFP power reflect alteration of cortical neuronal properties linked to the increased delta during sleep induced by sodium oxybate.
The inventors inflicted a secondary-blast injury (SBI) to mice targeting the anterior forebrain mesocircuit, which corresponds to the frontal/prefrontalcortical-pallidal thalamocortical loop systems.
The inventors examined animals' sleep-wake cycle before, after the SBI, and while injecting sodium oxybate (400 mg/Kg; FIG. 7A-7B). Local field potentials (LFPs) were recorded from the frontal area and neck-EMG activity to detect and extract the different sleep/wake cycle components—Non-REM, REM, and Wake state. The inventors examined the whole range of biological LFP frequencies before and after sodium oxybate injection by calculating power spectral density using Thomson's multi-taper method implemented using the Chronux tool box from MATLAB.

[1] = cited from earlier work
[2] = FIG. 7 legend, intraperitoneal 400 mg/Kg during prior sleep
[3] = wake state post-sodium oxybate injection (400 mg/Kg), 400 mg/kg

## O=C(O)CCCO [sodium oxybate]
SBI mice; [2]
  beta (15-30 Hz) LFP power during the subsequent wakeful period: increases
  gamma (>30 Hz) LFP power during the subsequent wakeful period: increases
SBI mice; FIG. 7 legend, intraperitoneal 400 mg/Kg in saline, application during the night, NREM sleep
  delta (1-5 Hz) LFP power: elevation
SBI mice; sodium oxybate 400 mg/Kg injected right before the sleep time (9 pm), frontal LFP
  delta oscillations (1-4 Hz) LFP power in Non-REM: increase; also recorded: elevation
SBI mice; [3]
  beta (20-40 Hz) LFP power during the wake state: higher; also recorded: increases
  gamma (>40 Hz) LFP power during the wake state: higher; also recorded: increases
SBI mice; wakeful period after night application of sodium oxybate
  persistence of the elevation of delta power during the wakeful period: does not persist
[1]; dose-dependent
  SWS (slow wave sleep): dose-dependent upregulation
[1]; in several conditions
  alpha-delta sleep: suppress alpha-delta sleep
